Test: mn = molality of the nth substance listed, in mol/kg
Details: 101.3 kPa, Liquid; for viscosity: Capillary tube (Ostwald / Ubbelohde) method; for speed of sound: Frequency=4 MHz, Linear variable-path acoustic interferometer; for mass density: Vibrating tube method

N=C(N)NCCC[C@H](N)C(=O)O [L-arginine] + O
Details | mass density [kg/m3] | speed of sound [m/s] | viscosity [mPa·s]
293.15 K, m1 = 0.05014 | 1000.72 | 1487.6 | 1.032
293.15 K, m1 = 0.1001 | 1003.17 | 1492.7 | 1.054
293.15 K, m1 = 0.15 | 1005.58 | 1497.9 | 1.08
293.15 K, m1 = 0.2 | 1007.92 | 1503.2 | 1.107
293.15 K, m1 = 0.25 | 1010.21 | 1508.6 | 1.13
293.15 K, m1 = 0.3001 | 1012.47 | 1514.1 | 1.155
298.15 K, m1 = 0.05014 | 999.556 | 1502.4 | 0.9151
298.15 K, m1 = 0.1001 | 1001.99 | 1507.5 | 0.9358
298.15 K, m1 = 0.15 | 1004.36 | 1512.7 | 0.9586
298.15 K, m1 = 0.2 | 1006.68 | 1518 | 0.9766
298.15 K, m1 = 0.25 | 1008.94 | 1523.4 | 1
298.15 K, m1 = 0.3001 | 1011.17 | 1528.9 | 1.021
303.15 K, m1 = 0.05014 | 998.142 | 1514.5 | 0.8179
303.15 K, m1 = 0.1001 | 1000.55 | 1519.6 | 0.8355
303.15 K, m1 = 0.15 | 1002.9 | 1524.8 | 0.8555
303.15 K, m1 = 0.2 | 1005.19 | 1530.1 | 0.8718
303.15 K, m1 = 0.25 | 1007.45 | 1535.5 | 0.8909
303.15 K, m1 = 0.3001 | 1009.67 | 1541 | 0.9084
308.15 K, m1 = 0.05014 | 996.503 | 1524.3 | 0.7362
308.15 K, m1 = 0.1001 | 998.883 | 1529.4 | 0.7512
308.15 K, m1 = 0.15 | 1001.21 | 1534.6 | 0.7694
308.15 K, m1 = 0.2 | 1003.48 | 1539.9 | 0.7828
308.15 K, m1 = 0.25 | 1005.7 | 1545.3 | 0.7987
308.15 K, m1 = 0.3001 | 1007.89 | 1550.8 | 0.8144
313.15 K, m1 = 0.05014 | 994.671 | 1533.7 | 0.6673
313.15 K, m1 = 0.1001 | 997.036 | 1538.8 | 0.6808
313.15 K, m1 = 0.15 | 999.344 | 1544 | 0.6951
313.15 K, m1 = 0.2 | 1001.6 | 1549.3 | 0.7067
313.15 K, m1 = 0.25 | 1003.8 | 1554.7 | 0.7224
313.15 K, m1 = 0.3001 | 1005.97 | 1560.3 | 0.7345

N[C@@H](CO)C(=O)O [L-serine] + O
Details | mass density [kg/m3] | speed of sound [m/s] | viscosity [mPa·s]
293.15 K, m1 = 0.05002 | 1000.49 | 1485.7 | 1.011
293.15 K, m1 = 0.1001 | 1002.74 | 1488.9 | 1.022
293.15 K, m1 = 0.15 | 1004.96 | 1492.2 | 1.034
293.15 K, m1 = 0.2003 | 1007.18 | 1495.6 | 1.046
293.15 K, m1 = 0.2502 | 1009.36 | 1499.1 | 1.058
293.15 K, m1 = 0.2999 | 1011.52 | 1502.7 | 1.069
298.15 K, m1 = 0.05002 | 999.314 | 1500.4 | 0.8972
298.15 K, m1 = 0.1001 | 1001.55 | 1503.5 | 0.907
298.15 K, m1 = 0.15 | 1003.74 | 1506.7 | 0.9165
298.15 K, m1 = 0.2003 | 1005.94 | 1510 | 0.9277
298.15 K, m1 = 0.2502 | 1008.1 | 1513.4 | 0.9379
298.15 K, m1 = 0.2999 | 1010.23 | 1516.9 | 0.9477
303.15 K, m1 = 0.05002 | 997.896 | 1512.4 | 0.8025
303.15 K, m1 = 0.1001 | 1000.1 | 1515.4 | 0.8115
303.15 K, m1 = 0.15 | 1002.27 | 1518.5 | 0.8204
303.15 K, m1 = 0.2003 | 1004.44 | 1521.7 | 0.8295
303.15 K, m1 = 0.2502 | 1006.56 | 1525 | 0.8377
303.15 K, m1 = 0.2999 | 1008.66 | 1528.4 | 0.8466
308.15 K, m1 = 0.05002 | 996.254 | 1522.1 | 0.723
308.15 K, m1 = 0.1001 | 998.433 | 1525 | 0.7313
308.15 K, m1 = 0.15 | 1000.58 | 1528 | 0.7386
308.15 K, m1 = 0.2003 | 1002.72 | 1531.1 | 0.7463
308.15 K, m1 = 0.2502 | 1004.83 | 1534.3 | 0.7535
308.15 K, m1 = 0.2999 | 1006.92 | 1537.6 | 0.7611
313.15 K, m1 = 0.05002 | 994.421 | 1531.4 | 0.6558
313.15 K, m1 = 0.1001 | 996.578 | 1534.2 | 0.6627
313.15 K, m1 = 0.15 | 998.702 | 1537.1 | 0.6688
313.15 K, m1 = 0.2003 | 1000.82 | 1540.2 | 0.6756
313.15 K, m1 = 0.2502 | 1002.91 | 1543.3 | 0.682
313.15 K, m1 = 0.2999 | 1004.97 | 1546.6 | 0.6881

Cc1ncc(C[n+]2csc(CCO)c2C)c(N)n1.Cl.[Cl-] [thiamine hydrochloride] + O
Details | mass density [kg/m3] | speed of sound [m/s] | viscosity [mPa·s]
293.15 K, m1 = 0.0497 | 1003.19 | 1490.4 | 1.048
293.15 K, m1 = 0.0502 | 1003.19 | – | 1.048
293.15 K, m1 = 0.0503 | – | 1490.4 | –
293.15 K, m1 = 0.1003 | 1008.06 | 1498.5 | 1.071
293.15 K, m1 = 0.1008 | 1008.06 | 1498.5 | 1.071
293.15 K, m1 = 0.1498 | 1013.01 | 1507.2 | 1.101
293.15 K, m1 = 0.1505 | 1013.01 | 1507.2 | 1.101
298.15 K, m1 = 0.0497 | 1001.99 | 1504.1 | 0.9193
298.15 K, m1 = 0.0502 | 1001.99 | – | 0.9193
298.15 K, m1 = 0.0503 | – | 1504.1 | –
298.15 K, m1 = 0.1003 | 1006.87 | 1512.6 | 0.954
298.15 K, m1 = 0.1008 | 1006.87 | 1512.6 | 0.954
298.15 K, m1 = 0.1498 | 1011.77 | 1520.8 | 0.9913
298.15 K, m1 = 0.1505 | 1011.77 | 1520.8 | 0.9913
303.15 K, m1 = 0.0497 | 1000.56 | 1516.7 | 0.8251
303.15 K, m1 = 0.0502 | 1000.56 | – | 0.8251
303.15 K, m1 = 0.0503 | – | 1516.7 | –
303.15 K, m1 = 0.1003 | 1005.44 | 1524.1 | 0.8569
303.15 K, m1 = 0.1008 | 1005.44 | 1524.1 | 0.8569
303.15 K, m1 = 0.1498 | 1010.29 | 1532.7 | 0.8892
303.15 K, m1 = 0.1505 | 1010.29 | 1532.7 | 0.8892
308.15 K, m1 = 0.0497 | 998.93 | 1526.9 | 0.7565
308.15 K, m1 = 0.0502 | 998.93 | – | 0.7565
308.15 K, m1 = 0.0503 | – | 1526.9 | –
308.15 K, m1 = 0.1003 | 1003.79 | 1533.7 | 0.7753
308.15 K, m1 = 0.1008 | 1003.79 | 1533.7 | 0.7753
308.15 K, m1 = 0.1498 | 1008.62 | 1542.5 | 0.8015
308.15 K, m1 = 0.1505 | 1008.62 | 1542.5 | 0.8015
313.15 K, m1 = 0.0497 | 997.193 | 1535.5 | 0.6772
313.15 K, m1 = 0.0502 | 997.193 | – | 0.6772
313.15 K, m1 = 0.0503 | – | 1535.5 | –
313.15 K, m1 = 0.1003 | 1002 | 1542.8 | 0.7057
313.15 K, m1 = 0.1008 | 1002 | 1542.8 | 0.7057
313.15 K, m1 = 0.1498 | 1006.76 | 1551.1 | 0.7388
313.15 K, m1 = 0.1505 | 1006.76 | 1551.1 | 0.7388

O [water] + Cc1ncc(C[n+]2csc(CCO)c2C)c(N)n1.Cl.[Cl-]
m2 = 0
Details | mass density [kg/m3] | speed of sound [m/s] | viscosity [mPa·s]
293.15 K | – | – | 1.002
298.15 K | – | – | 0.8906
303.15 K | – | – | 0.7975
308.15 K | 994.059 | 1519.3 | 0.7193
313.15 K | – | 1528.7 | 0.6531

O [water] + N=C(N)NCCC[C@H](N)C(=O)O
m2 = 0
Details | mass density [kg/m3] | speed of sound [m/s] | viscosity [mPa·s]
293.15 K | – | – | 1.002
298.15 K | – | – | 0.8906
303.15 K | – | – | 0.7975
308.15 K | 994.059 | 1519.3 | 0.7193
313.15 K | – | 1528.7 | 0.6531

O [water] + N[C@@H](CO)C(=O)O
m2 = 0
Details | mass density [kg/m3] | speed of sound [m/s] | viscosity [mPa·s]
293.15 K | – | – | 1.002
298.15 K | – | – | 0.8906
303.15 K | – | – | 0.7975
308.15 K | 994.059 | 1519.3 | 0.7193
313.15 K | – | 1528.7 | 0.6531

Source: the NIST ThermoML archive (doi:10.1016/j.jct.2019.03.039)
